PubChem BioAssay AID1253 (Columbia University Molecular Screening Center, 2008)
Active and inactive are the calls of the source.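 How the source made its calls: active means IC50 under 10 µM in the follow-up dose response; inactive means IC50 10 µM or more, or under 40% single-dose inhibition.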

Molecular target: Tyrosine-protein phosphatase non-receptor type 22 (Homo sapiens) (UniProt Q9Y2R2)
Assay: LYP phosphatase inhibitors, confirmation, biochemical, DiFMUP fluorescence, retest and dose response (AID 1253)
Conditions: recombinant LYP; for inhibition: at 10 µM, stronger effect = higher value

Tyrosine-protein phosphatase non-receptor type 22 (Homo sapiens), sequence (Q9Y2R2 whole entry, looked up): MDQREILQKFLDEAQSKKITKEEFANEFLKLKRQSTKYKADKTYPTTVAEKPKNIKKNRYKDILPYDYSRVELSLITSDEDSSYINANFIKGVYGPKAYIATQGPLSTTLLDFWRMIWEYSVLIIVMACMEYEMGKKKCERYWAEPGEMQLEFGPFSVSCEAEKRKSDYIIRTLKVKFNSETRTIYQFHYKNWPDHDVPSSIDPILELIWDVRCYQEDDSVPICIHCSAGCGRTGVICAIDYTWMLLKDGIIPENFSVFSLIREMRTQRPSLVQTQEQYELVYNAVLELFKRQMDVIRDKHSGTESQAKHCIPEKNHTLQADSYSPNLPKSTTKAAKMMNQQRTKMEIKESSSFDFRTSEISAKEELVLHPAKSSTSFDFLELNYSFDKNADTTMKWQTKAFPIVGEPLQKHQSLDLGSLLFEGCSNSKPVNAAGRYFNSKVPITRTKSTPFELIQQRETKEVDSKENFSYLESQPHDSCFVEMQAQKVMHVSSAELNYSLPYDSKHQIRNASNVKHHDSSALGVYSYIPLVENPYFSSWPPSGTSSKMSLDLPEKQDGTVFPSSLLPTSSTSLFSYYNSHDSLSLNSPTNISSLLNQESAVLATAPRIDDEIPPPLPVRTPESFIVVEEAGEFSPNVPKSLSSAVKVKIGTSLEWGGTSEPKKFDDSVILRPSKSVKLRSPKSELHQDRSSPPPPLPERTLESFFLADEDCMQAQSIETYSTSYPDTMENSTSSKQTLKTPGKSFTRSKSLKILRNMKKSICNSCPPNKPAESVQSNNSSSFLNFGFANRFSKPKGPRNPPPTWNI

| Structure (SMILES) | inhibition | IC50 |
| --- | --- | --- |
| O=C(CCN1C(=O)c2ccccc2C1=O)Oc1ccc2ccccc2c1 | inactive |  |
| O=C(Cn1cnc2ccccc21)Nc1ccc(C(=O)O)cc1 | inactive |  |
| COc1ccc(NC(=O)CSc2ccc3c4c(cccc24)C(=O)c2ccccc2-3)cc1 | inactive |  |
| CCOc1ccccc1NC(=O)CN(c1ccc(C)cc1)S(=O)(=O)c1c(C)noc1C | inactive |  |
| Cc1nn(-c2ccccc2)c(C)c1/C=N/NC(=O)c1cc(C23CC4CC(CC(C4)C2)C3)[nH]n1 | inactive |  |
| Cc1nnc(SCC(=O)N/N=C/c2cn(-c3ccccc3)nc2-c2ccccc2)n1-c1ccccc1 | inactive |  |
| Nc1c(C(=O)NCc2ccco2)c2nc3ccccc3nc2n1CCc1ccccc1F | inactive |  |
| O=C(Nc1ccc2oc(-c3ccc4ccccc4c3)nc2c1)c1ccc2c(c1)OCCO2 | inactive |  |
| O=C(CSc1nc2ccc(S(=O)(=O)N3CCOCC3)cc2[nH]1)N1CCOCC1 | inactive |  |
| O=c1c(/C=N/Nc2ccccc2)c(Sc2nnnn2-c2ccccc2)nc2ccccn12 | inactive |  |
| CCCn1c(Nc2ccc(Cl)cc2)nc2ccccc21 | inactive |  |
| Clc1ccc(C2=Nn3c(nnc3-c3cc(-c4ccccc4)n[nH]3)SC2)cc1 | inactive |  |
| O=[N+]([O-])c1cc(/C=N\Nc2nccs2)ccc1O |  | 4.06 µM |
| COCCCNC(=O)c1cccn2c(=O)c3cc4ccccc4cc3nc12 | inactive |  |
| Cc1ccc(C(=O)n2nc(-c3ccco3)nc2N)cc1 | inactive |  |
| CC(/C=N/n1c(C2CCCCC2)n[nH]c1=S)=C\c1ccccc1 | inactive |  |
| CCOc1ccc(N(CC(=O)Nc2ccccc2C(=O)NCc2ccco2)S(C)(=O)=O)cc1 | inactive |  |
| COc1ccc(C(=O)c2sc3nc(-c4ccccc4)ccc3c2N)cc1OC | inactive |  |
| CCc1nnc(NS(=O)(=O)c2ccc(NC(=S)NC(=O)/C=C/c3ccc(C(C)C)cc3)cc2)s1 | inactive |  |
| Cc1ccc(C)c(OCC(=O)N/N=C/c2c(C)nn(-c3ccccc3)c2Cl)c1 | inactive |  |
| Cc1ccc2oc3nc(C)c(C(=O)Nc4cccc(C(F)(F)F)c4)cc3c(=O)c2c1 | inactive |  |
| CSc1ccc(/C=N\NC(=O)COc2ccc(Cl)cc2Br)cc1 | inactive |  |
| Cc1ccc(-c2nn(CC(=O)NCc3cc(-c4nn(C)c(=O)c5ccccc45)ccc3C)c(=O)c3ccccc23)cc1 | inactive |  |
| O=C(CSc1nnc(-c2cccs2)n1-c1cccc(Cl)c1)c1cccc2c1OCCO2 | inactive |  |
| Nn1cnnc1N/N=C/c1cc(Br)cc(Br)c1O | inactive |  |
| COc1cccc(OC)c1-c1nn2c(-c3cc(-c4ccccc4)n[nH]3)nnc2s1 |  | 4.71 µM |
| CN(C)/C=C/C(=O)c1ccc(F)cc1 | inactive |  |
| COc1ccc(S(=O)(=O)N2CC3CCCN3c3cc(C(F)(F)F)ccc32)cc1 (centres undefined) | inactive |  |

More lines, now with the values ahead:

| inhibition | IC50 | Structure (SMILES) |
| --- | --- | --- |
| inactive |  | COc1ccc2cc(CN(Cc3ccco3)C(c3nnnn3C3CCCCC3)C(C)C)c(=O)[nH]c2c1 (centres undefined) |
| inactive |  | O=C(Cn1c(-c2ccc(Cl)cc2)noc1=O)N1CCN(c2ccccc2F)CC1 |
| inactive |  | CC(OC(=O)c1ccco1)C(=O)NC1CCCCC1 (centres undefined) |
| inactive |  | COc1ccc(CN2CCN(C(=O)c3ccco3)CC2)cc1 |
| inactive |  | COc1ccc(C2C(C#N)=C(N)N(c3sc4c(c3C#N)CCCC4)C3=C2C(=O)CC(C)(C)C3)cc1OC (centres undefined) |
| inactive |  | Cn1c(=O)cc(SCC(=O)NCCN2CCN(c3ccccc3F)CC2)c2cc(Cl)ccc21 |
| inactive |  | COc1ccc(NC(=O)C2CCCO2)cc1Cl (centres undefined) |
| inactive |  | Cc1sc(NC(=O)c2sc3nc4c(C)cccc4cc3c2N)c(C#N)c1C |
| inactive |  | CCNC(=S)NNC(=O)c1cccn(Cc2ccc(Cl)cc2)c1=O |
| inactive |  | CCCSc1nc(C)c(-c2csc(C(C#N)=C3CCCC3)n2)cc1C#N |
| inactive |  | CCOC(=O)c1cn(-c2nc(-c3ccc(Cl)c(Cl)c3)cs2)c2c(F)c(N3CCOCC3)c(F)cc2c1=O |
| inactive |  | O=C(CSc1nnc(-c2ccc(Cl)s2)o1)N1CCCc2ccccc21 |
| inactive |  | CCOC(=O)c1ccc(NC(=O)CC2NCCNC2=O)cc1 (centres undefined) |
| inactive |  | CCCCN(C(=O)CSc1nnc(Nc2ccc(C)c(C)c2)s1)c1c(N)n(Cc2ccccc2)c(=O)[nH]c1=O |
| inactive |  | CCOC(=O)c1c(N2C(=O)Nc3cc(Cl)c(Cl)cc3N2O)sc2c1CCCCC2 |
| inactive |  | Cc1nc2c(c(=O)n1CCC1=CCCCC1)c1nc3ccccc3nc1n2/N=C/c1ccccc1 |
|  | 1.27 µM | Cc1ccc(NC(=O)CN2C(=O)S/C(=C\c3cccn3-c3cccc(C(=O)O)c3)C2=O)c(C)c1 |
| inactive |  | NC(=O)C1CCN(C(c2ccccc2Cl)c2nnnn2CC2CCCO2)CC1 (centres undefined) |
| inactive |  | Cc1cccc(N(C(=O)c2ccc(Cl)cc2)C2CS(=O)(=O)CC2OC(=O)c2ccc(Cl)cc2)c1 (centres undefined) |
| inactive |  | O=C(Nc1ccc(N2CCCCC2)c(Cl)c1)c1ccc2c(c1)OCCO2 |
| inactive |  | CCOC(=O)c1ccc(NC(=O)CSc2nc(NC(=O)c3ccccc3)c3c(C)c(C)oc3n2)cc1 |
